Laboratory results reported in ChEMBL document CHEMBL4028852, “Design of a Chemical Probe for the Bromodomain and Plant Homeodomain Finger-Containing (BRPF) Family of Proteins” (J Med Chem, 2017).

Columns and labels:
[1] = biological target: T1, ATPase family AAA domain-containing protein 2B (Homo sapiens, UniProt Q9ULI0); assay: Inhibition of human ATAD2B (955 to 1082 residues) expressed in Escherichia coli BL21 after 1 hr by BROMOscan assay
T1 sequence (Q9ULI0 whole entry): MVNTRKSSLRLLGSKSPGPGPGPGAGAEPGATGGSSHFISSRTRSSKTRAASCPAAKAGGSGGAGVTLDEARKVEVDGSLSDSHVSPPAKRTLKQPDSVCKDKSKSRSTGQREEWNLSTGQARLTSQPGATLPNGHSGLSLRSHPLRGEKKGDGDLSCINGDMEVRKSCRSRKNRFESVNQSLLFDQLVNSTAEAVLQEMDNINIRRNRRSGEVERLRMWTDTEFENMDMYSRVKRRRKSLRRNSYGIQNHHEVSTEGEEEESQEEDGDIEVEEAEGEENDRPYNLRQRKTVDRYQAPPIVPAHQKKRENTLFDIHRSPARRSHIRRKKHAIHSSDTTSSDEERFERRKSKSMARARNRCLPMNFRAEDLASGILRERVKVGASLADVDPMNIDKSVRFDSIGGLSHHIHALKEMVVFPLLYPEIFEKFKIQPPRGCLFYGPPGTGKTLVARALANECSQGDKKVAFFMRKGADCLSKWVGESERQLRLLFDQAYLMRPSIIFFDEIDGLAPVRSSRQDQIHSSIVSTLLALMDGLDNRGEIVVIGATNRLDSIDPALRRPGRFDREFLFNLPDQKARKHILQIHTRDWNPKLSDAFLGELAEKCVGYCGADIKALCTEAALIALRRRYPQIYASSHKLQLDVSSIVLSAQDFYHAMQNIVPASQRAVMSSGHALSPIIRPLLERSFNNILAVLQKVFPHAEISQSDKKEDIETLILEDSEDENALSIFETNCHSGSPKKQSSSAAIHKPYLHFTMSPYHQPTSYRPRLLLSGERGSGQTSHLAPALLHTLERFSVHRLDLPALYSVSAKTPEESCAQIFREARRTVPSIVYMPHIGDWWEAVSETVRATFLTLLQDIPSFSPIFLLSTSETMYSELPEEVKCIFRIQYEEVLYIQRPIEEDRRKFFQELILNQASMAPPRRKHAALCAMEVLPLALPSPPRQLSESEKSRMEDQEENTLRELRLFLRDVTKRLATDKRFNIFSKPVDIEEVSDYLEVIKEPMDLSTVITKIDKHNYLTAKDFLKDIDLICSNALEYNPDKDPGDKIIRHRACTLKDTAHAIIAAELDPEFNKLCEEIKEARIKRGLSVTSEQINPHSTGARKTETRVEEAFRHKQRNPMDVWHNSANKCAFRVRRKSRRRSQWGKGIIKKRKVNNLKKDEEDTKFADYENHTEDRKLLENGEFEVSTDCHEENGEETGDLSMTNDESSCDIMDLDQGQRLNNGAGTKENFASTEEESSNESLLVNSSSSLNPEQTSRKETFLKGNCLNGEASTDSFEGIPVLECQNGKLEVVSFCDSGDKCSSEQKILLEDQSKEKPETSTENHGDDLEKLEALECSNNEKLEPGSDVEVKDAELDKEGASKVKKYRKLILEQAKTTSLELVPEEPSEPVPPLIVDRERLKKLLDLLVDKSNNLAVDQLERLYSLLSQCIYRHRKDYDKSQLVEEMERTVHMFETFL

[2] = biological target: T2, Bromodomain-containing protein 9 (Homo sapiens, UniProt Q9H8M2); assay: Inhibition of His-tagged BRD9 (unknown origin) after 30 mins by alphaScreen assay
T2 sequence (Q9H8M2 whole entry): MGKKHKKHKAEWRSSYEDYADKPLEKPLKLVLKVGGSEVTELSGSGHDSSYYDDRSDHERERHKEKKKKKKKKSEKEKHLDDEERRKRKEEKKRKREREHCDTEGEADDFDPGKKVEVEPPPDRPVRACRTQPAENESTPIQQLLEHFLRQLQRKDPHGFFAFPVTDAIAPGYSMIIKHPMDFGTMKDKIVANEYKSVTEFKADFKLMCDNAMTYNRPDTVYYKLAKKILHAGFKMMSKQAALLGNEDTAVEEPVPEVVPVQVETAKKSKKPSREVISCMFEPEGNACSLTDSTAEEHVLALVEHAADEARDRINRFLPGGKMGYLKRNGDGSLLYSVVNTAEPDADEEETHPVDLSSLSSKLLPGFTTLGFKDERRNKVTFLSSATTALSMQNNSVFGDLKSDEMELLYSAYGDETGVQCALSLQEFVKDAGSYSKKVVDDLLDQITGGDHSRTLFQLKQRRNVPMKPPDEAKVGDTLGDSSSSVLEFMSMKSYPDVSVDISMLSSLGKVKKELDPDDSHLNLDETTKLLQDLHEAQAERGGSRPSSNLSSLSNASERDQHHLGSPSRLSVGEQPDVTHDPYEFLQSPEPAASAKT

[3] = biological target: Bromodomain-containing protein 4 (Homo sapiens, UniProt O60885); assay: Inhibition of human BRD4 bromodomain 1 (unknown origin) using [H-YSGRGKacGGKacGLGKacGGAKacRHRK(Biotin)-OH peptide as substrate after 30 mins by alphaScreen assay
[4] = tested on: Liver; assay: Metabolic stability in human liver microsomes by UPLC-MS/MS analysis; format: ADME, microsome
[5] = tested on: DMS-114; assay: Inhibition of cell proliferation of human DMS114 cells after 72 hrs by MTS assay; format: functional; settings: DMS-114, 72 h
[6] = Apparent permeability across basolateral to apical side in human Caco2 cells at 10 uM after 2 hrs by LC-MS/MS analysis; format: ADME, cell-based; settings: Caco-2
[7] = Inhibition of CYP450 (unknown origin); format: ADME; settings: human
[8] = biological target: KCNQ1/minK (Homo sapiens, UniProt P51787+Q8N4C8); assay: Inhibition of KCNQ1/minK (unknown origin) at 30 uM; format: protein-complex assay
[9] = biological target: hERG (Homo sapiens, UniProt Q12809); assay: Inhibition of human ERG at 30 uM
[10] = biological target: T3, Kir2.1 (Homo sapiens, UniProt P63252); assay: Inhibition of Kir2.1 (unknown origin) at 30 uM
T3 sequence (P63252 whole entry): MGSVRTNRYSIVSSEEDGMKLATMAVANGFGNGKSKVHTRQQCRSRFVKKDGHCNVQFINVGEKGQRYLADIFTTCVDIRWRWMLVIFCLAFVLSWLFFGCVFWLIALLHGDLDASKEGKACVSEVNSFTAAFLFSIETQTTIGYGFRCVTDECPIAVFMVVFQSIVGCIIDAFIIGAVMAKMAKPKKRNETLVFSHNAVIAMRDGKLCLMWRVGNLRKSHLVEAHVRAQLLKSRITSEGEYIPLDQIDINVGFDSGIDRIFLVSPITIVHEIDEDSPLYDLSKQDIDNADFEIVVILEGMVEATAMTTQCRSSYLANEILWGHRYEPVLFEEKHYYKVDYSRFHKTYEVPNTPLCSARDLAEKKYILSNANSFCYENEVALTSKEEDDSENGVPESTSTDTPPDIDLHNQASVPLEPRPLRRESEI

hERG, sequence (Q12809 whole entry): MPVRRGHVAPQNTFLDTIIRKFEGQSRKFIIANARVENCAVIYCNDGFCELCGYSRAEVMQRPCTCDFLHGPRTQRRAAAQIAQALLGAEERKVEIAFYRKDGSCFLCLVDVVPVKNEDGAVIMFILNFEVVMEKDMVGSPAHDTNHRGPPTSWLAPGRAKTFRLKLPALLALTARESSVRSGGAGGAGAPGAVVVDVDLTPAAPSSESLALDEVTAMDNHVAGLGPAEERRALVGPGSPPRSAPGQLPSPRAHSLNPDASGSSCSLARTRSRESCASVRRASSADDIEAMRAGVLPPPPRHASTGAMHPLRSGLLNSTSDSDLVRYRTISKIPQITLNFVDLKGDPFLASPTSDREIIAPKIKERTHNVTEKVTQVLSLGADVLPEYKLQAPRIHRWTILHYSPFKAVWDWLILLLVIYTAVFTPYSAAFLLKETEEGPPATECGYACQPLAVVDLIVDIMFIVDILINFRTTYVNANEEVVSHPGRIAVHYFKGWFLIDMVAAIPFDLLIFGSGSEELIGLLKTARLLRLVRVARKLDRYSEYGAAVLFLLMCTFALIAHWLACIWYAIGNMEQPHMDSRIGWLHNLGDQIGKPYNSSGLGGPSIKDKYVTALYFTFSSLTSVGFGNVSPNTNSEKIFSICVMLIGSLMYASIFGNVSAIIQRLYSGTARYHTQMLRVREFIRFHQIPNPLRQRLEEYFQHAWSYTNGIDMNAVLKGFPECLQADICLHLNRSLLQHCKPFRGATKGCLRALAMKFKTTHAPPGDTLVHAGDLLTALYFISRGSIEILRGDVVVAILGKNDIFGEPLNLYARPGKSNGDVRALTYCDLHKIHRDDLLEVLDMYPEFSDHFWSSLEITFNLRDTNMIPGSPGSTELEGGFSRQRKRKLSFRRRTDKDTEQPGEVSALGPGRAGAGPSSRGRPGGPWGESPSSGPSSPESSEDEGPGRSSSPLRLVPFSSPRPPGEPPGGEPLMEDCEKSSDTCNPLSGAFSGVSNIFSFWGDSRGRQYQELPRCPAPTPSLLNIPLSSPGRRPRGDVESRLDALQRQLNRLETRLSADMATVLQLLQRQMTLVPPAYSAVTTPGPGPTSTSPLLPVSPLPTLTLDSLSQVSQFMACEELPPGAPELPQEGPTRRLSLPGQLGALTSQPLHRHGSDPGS
KCNQ1/minK, sequence (P51787 whole entry): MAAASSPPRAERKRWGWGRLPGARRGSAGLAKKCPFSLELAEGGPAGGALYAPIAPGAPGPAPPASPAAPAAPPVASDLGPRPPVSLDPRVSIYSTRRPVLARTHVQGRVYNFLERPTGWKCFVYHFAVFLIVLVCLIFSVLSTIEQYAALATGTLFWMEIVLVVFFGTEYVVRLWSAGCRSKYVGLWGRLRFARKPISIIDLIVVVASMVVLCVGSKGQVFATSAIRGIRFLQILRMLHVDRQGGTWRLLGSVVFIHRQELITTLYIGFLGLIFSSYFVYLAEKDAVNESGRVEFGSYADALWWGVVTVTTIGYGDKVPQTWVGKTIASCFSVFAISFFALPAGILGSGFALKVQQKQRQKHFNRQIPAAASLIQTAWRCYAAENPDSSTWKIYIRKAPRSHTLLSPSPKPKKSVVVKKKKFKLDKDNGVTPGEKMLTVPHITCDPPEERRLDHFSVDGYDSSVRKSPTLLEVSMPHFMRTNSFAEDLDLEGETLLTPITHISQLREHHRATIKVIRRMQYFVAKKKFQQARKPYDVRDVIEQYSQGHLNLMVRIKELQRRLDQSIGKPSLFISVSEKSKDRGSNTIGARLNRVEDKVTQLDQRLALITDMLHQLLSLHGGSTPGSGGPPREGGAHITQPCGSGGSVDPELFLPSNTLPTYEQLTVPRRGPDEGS
KCNQ1/minK, sequence (Q8N4C8 whole entry): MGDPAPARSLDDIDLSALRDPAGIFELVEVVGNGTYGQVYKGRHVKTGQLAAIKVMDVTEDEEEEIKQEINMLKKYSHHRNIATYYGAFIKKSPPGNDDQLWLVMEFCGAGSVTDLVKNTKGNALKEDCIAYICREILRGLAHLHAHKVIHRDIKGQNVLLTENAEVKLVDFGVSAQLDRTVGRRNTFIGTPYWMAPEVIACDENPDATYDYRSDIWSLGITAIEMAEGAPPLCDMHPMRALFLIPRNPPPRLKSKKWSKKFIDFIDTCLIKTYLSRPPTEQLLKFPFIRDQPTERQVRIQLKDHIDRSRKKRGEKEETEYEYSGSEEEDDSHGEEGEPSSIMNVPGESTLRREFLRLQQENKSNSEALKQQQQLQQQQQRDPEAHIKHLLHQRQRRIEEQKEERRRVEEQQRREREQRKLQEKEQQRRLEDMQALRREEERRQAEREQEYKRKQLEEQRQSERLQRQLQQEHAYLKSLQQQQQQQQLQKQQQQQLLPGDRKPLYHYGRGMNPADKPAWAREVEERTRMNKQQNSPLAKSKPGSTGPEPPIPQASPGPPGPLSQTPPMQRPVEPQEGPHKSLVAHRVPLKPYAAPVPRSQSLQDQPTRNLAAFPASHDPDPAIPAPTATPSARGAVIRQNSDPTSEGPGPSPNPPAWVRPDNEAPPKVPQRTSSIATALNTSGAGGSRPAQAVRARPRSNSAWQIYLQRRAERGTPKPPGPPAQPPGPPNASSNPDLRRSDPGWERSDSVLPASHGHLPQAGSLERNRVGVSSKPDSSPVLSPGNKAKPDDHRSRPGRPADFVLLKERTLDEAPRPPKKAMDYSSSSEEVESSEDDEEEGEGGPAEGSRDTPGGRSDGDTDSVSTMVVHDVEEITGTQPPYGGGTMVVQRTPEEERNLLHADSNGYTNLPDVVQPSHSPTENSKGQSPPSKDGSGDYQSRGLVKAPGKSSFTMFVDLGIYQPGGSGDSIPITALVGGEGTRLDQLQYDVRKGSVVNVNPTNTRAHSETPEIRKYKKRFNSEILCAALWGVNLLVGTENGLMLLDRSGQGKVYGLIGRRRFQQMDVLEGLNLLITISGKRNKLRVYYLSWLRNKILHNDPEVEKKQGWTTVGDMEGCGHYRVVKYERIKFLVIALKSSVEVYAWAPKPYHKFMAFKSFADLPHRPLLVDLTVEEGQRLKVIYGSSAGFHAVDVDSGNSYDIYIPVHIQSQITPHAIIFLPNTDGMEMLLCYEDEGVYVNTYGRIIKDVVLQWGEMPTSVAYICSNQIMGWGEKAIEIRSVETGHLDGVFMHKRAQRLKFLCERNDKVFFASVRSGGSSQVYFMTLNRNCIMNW

SMILES: COc1cc(C#N)ccc1S(=O)(=O)Nc1ccc2c(c1)cc(C)c(=O)n2C
- IC50 [1]: > 100 µM
- IC50 [2]: 4.4 µM
- IC50 [3]: > 10 µM
- Stability [4]: Stable
- GI50 [5]: 14.7 µM
- Papp B→A at 2 h, 10 µM [6]: 52 ×10⁻⁶ cm/s
- inhibition (INH) [7]: Not Active
- inhibition at 30 µM [8]: < 40%
- inhibition at 30 µM [9]: < 40%
- inhibition at 30 µM [10]: < 40%
